# Results reported in ChEMBL document CHEMBL1147611, “Anti-AIDS agents. Part 57: Actein, an anti-HIV principle from the rhizome of Cimicifuga racemosa (black cohosh), and the anti-HIV activity of related saponins” (Bioorg Med Chem Lett, 2004).
# Test system: H9
# Test: Effective concentration required to suppress HIV replication in H9 lymphocytes was determined
# Format: functional, cell-based
# Details: Homo sapiens
row,Structure (SMILES),EC50 [µg/mL]
1,C[C@@H]1CC[C@@]2(OC1)O[C@H]1C[C@H]3[C@@H]4CC[C@@H]5C[C@@H](O[C@@H]6O[C@@H](CO)[C@H](O)[C@H](O)[C@@H]6O[C@@H]6O[C@@H](CO)[C@@H](O)[C@H](O)[C@@H]6O)CC[C@]5(C)[C@H]4CC[C@]3(C)[C@H]1[C@@H]2C,< 0.25
2,CC(=O)O[C@@H]1C[C@@]23C[C@@]24CC[C@H](OC2OCC(O)C(O)C2O)C(C)(C)[C@@H]4CC[C@H]3[C@]2(C)C[C@@H]3O[C@]4(C[C@@H](C)[C@@H]3[C@@]12C)O[C@H](O)[C@@]1(C)O[C@@H]41 (some centres undefined),0.375
3,C[C@@H]1CC[C@@]2(OC1)O[C@H]1C[C@H]3[C@@H]4CC[C@@H]5C[C@@H](O[C@@H]6O[C@@H](CO)[C@@H](O)[C@H](O)[C@@H]6O[C@@H]6O[C@H](C)[C@H](O)[C@@H](O)[C@@H]6O)CC[C@]5(C)[C@H]4CC[C@]3(C)[C@H]1[C@@H]2C,< 0.25

# Test system: H9
# Test: Effective concentration required to suppress HIV replication in H9 lymphocytes was determined; Moderate activity
# Format: functional, cell-based, Homo sapiens
# Details: not given
row,Structure (SMILES),EC50
1,C=CC(C)(O)CC/C=C(\CO)C(=O)O[C@H]1[C@H](O[C@@H]2[C@H](OC(=O)[C@]34CCC(C)(C)C[C@H]3C3=CC[C@@H]5[C@@]6(C)CC[C@H](O[C@H]7O[C@@H](CO[C@@H]8OC[C@H](O)[C@@H](O)[C@@H]8O[C@@H]8OC[C@@H](O)[C@H](O)[C@@H]8O)[C@@H](O)[C@H](O)[C@@H]7O)C(C)(C)[C@@H]6CC[C@@]5(C)[C@]3(C)CC4)O[C@@H](COC(=O)/C(=C/CC[C@](C)(C=C)O[C@@H]3OC[C@@H](O)[C@H](O)[C@@H]3OC(=O)/C(=C/CC[C@@](C)(O)C=C)CO)CO)[C@@H](O)[C@@H]2O)O[C@@H](C)[C@H](O[C@@H]2OC[C@@H](O)[C@H](O[C@@H]3OC[C@@H](O)[C@H](O)[C@@H]3O)[C@@H]2O)[C@@H]1O (some centres undefined),Moderate
2,C=CC(C)(O)CC/C=C(\CO)C(=O)OC[C@@H]1O[C@@H](OC(=O)[C@]23CCC(C)(C)C[C@H]2C2=CC[C@@H]4[C@@]5(C)CC[C@H](O[C@@H]6O[C@@H](CO[C@@H]7OC[C@H](O)[C@H](O)[C@@H]7O[C@@H]7OC[C@@H](O)[C@H](O)[C@@H]7O)[C@@H](O)[C@H](O)[C@@H]6O)C(C)(C)[C@@H]5CC[C@@]4(C)[C@]2(C)CC3)C(O[C@@H]2O[C@@H](C)[C@H](O[C@@H]3OC[C@@H](O)[C@H](O[C@@H]4OC[C@@H](O)[C@H](O)C4O)[C@@H]3O)[C@H](O)[C@H]2O)[C@@H](O)[C@@H]1O (some centres undefined),Moderate
3,C=CC(C)(O)CC/C=C(\CO)C(=O)OC[C@@H]1O[C@@H](OC(=O)[C@]23CCC(C)(C)C[C@H]2C2=CC[C@@H]4[C@@]5(C)CC[C@H](O[C@@H]6O[C@@H](CO[C@@H]7OC[C@H](O)[C@H](O)[C@@H]7O[C@@H]7OC[C@@H](O)[C@H](O)[C@@H]7O)[C@@H](O)[C@H](O)[C@@H]6O)C(C)(C)[C@@H]5CC[C@@]4(C)[C@]2(C)C[C@H]3O)C(O[C@@H]2O[C@@H](C)[C@H](O[C@@H]3OC[C@@H](O)[C@H](O[C@@H]4OC[C@@H](O)[C@H](O)C4O)[C@@H]3O)[C@H](O)[C@H]2O)[C@@H](O)[C@@H]1O (some centres undefined),Moderate
4,C=CC(C)(O)CC/C=C(\CO)C(=O)O[C@H]1[C@@H](OC[C@@H]2O[C@@H](OC(=O)[C@]34CCC(C)(C)C[C@H]3C3=CC[C@@H]5[C@@]6(C)CC[C@H](O[C@@H]7O[C@@H](CO[C@@H]8OC[C@H](O)[C@H](O)[C@@H]8O[C@@H]8OC[C@@H](O)[C@H](O)[C@@H]8O)[C@@H](O)[C@H](O)[C@@H]7O)C(C)(C)[C@@H]6CC[C@@]5(C)[C@]3(C)C[C@H]4O)C(O[C@@H]3O[C@@H](C)[C@H](O[C@@H]4OC[C@@H](O)[C@H](O[C@@H]5OC[C@@H](O)[C@H](O)C5O)[C@@H]4O)[C@H](O)[C@H]3O)[C@@H](O)[C@@H]2O)O[C@@H](C)[C@H](O)[C@@H]1OC(=O)/C(=C/CCC(C)(O)C=C)CO (some centres undefined),Moderate

# Test system: not listed separately
# Test: Therapeutic index of compound was determined by the ratio of IC50 to that of EC50
# Format: cell-based
# Details: human, H9 cells; read-out: TI
row,Structure (SMILES),selectivity ratio
1,C[C@H]1[C@H]2[C@H](C[C@@]3(C)[C@@H]4CC[C@H]5C(C)(C)[C@@H](OC6OCC(O)C(O)C6O)CC[C@@]56C[C@@]46CC[C@]23C)O[C@@]2(O)[C@@H]1OC(C)(C)[C@H]2O (some centres undefined),30.2
2,C[C@@H]1C[C@H]2O[C@@]3(O[C@@H]2C(C)(C)O)[C@H](O)[C@@]2(C)[C@@H]4CC[C@H]5C(C)(C)[C@@H](O[C@@H]6OC[C@@H](O)[C@H](O)[C@H]6O)CC[C@@]56C[C@@]46CC[C@]2(C)[C@@H]13,30.2
3,C[C@@H]1C[C@]2(C[C@@H](C)[C@H]3[C@@H](C[C@@]4(C)C5=C(CC[C@]34C)[C@@]3(C)CC[C@H](O[C@@H]4O[C@@H](O[C@@H]6OC[C@H](O)[C@H](O)[C@@H]6O[C@@H]6O[C@@H](CO)[C@@H](O)[C@H](O)[C@@H]6O[C@@H]6O[C@@H](C)[C@H](O)[C@H](O)[C@H]6O)[C@@H](O)[C@H](O)[C@@H]4O)[C@@](C)(CO)[C@@H]3CC5)O2)OC1=O,30.2
4,CC(=O)O[C@@H]1C[C@@]23C[C@@]24CC[C@H](OC2OCC(O)C(O)C2O)C(C)(C)[C@@H]4CC[C@H]3[C@]2(C)C[C@@H]3O[C@]4(C[C@@H](C)[C@@H]3[C@@]12C)O[C@H](O)[C@@]1(C)O[C@@H]41 (some centres undefined),144
5,CC(=O)OC1COC(O[C@H]2CC[C@]34C[C@]35CC[C@]3(C)[C@@H]([C@H](C)C[C@@H](OC(C)=O)[C@@H]6OC6(C)C)C(=O)[C@H](OC(C)=O)[C@@]3(C)[C@@H]5CC[C@H]4C2(C)C)C(OC(C)=O)C1OC(C)=O (some centres undefined),30.2
6,CC(=O)O[C@@H]1C[C@@]23C[C@@]24CC[C@H](OC2OCC(O)C(O)C2O)C(C)(C)[C@@H]4CC[C@H]3[C@]2(C)C[C@@H]3O[C@]4(C[C@@H](C)[C@@H]3[C@@]12C)OC[C@]1(C)O[C@H]41 (some centres undefined),30.2
7,C[C@H]1[C@H]2[C@H](C[C@@]3(C)C4=CC[C@H]5C(C)(C)[C@@H](OC6OCC(O)C(O)C6O)CC[C@@]56C[C@@]46CC[C@]23C)O[C@@]2(O)[C@@H]1OC(C)(C)[C@H]2O (some centres undefined),30.2
